For the experiment, the system named is HCT 116 cells (human colon carcinoma, ATCC-No. CCl-247). Put plainly: Viability assay in HCT 116 cells (CellTiter-Glo Luminescent Cell Viability Assay). The class given is cell-based. Particulars: 10 concentrations 30 μM to 0.0015 μM, incubation 120 h (5 days), luminescence (ATP), triplicate. The text has this:
Viability Assay in HCT 116 Cells
This assay is a homogeneous method of determining the number of viable cells in culture based on quantitation of the ATP present, an indicator of metabolically active cells. The assay is designed for use with multiwell formats, making it ideal for automated high-throughput screening (HTS), cell proliferation and cytotoxicity assays. The homogeneous assay procedure involves adding a single reagent (containing luciferase, luciferan substrate, and buffer) directly to cells cultured in serum-supplemented medium. Cell washing, removal of medium and multiple pipetting steps are not required. The system detects as few as 15 cells/well in a 384-well format in 10 minutes after adding reagent and mixing.
The homogeneous “add-mix-measure” format results in cell lysis and generation of a luminescent signal proportional to the amount of ATP present. The amount of ATP is directly proportional to the number of cells present in culture. The above-referenced assay generates a “glow-type” luminescent signal, produced by the luciferase reaction, which has a half-life generally greater than five hours, depending on cell type and medium used. The extended half-life eliminates the need to use reagent injectors and provides flexibility for continuous or batch mode processing of multiple plates. The unique homogeneous format avoids errors that may be introduced by other ATP measurement methods that require multiple steps.
For the assay the cells were seeded in 384 well plates, 1000 cells per well, in the same medium. […] After 5 days the viability assay was done according to the instructions of the manufacturer. In brief: the cell-plate was equilibrated to room temperature for approximately 30 minutes and then reagent (containing luciferase, luciferan substrate, and buffer) was added. The contents were carefully mixed for 15 minutes to induce cell lysis. After 45 minutes the luminescent signal was measured in Victor 2, (scanning multiwell spectrophotometer, Wallac).
In order to achieve a final concentration of 30 μM as highest concentration […] of 10 mM compound stock solution were added directly to 163 μl media. Then step e) of the dilution procedure described below, was followed.
Analysis: • Add 30 μl of reagent containing luciferase, luciferan substrate, and buffer per well, • shake 15 minutes at room temperature • incubate further 45 minutes at room temperature without shaking
Measurement: • Victor 2 scanning multiwell spectrophotometer (Wallac), Luminescence mode (0.5 sec/read, 477 nm) • Determine IC50 using a non-linear curve fit (XLfit® software [ID Business Solution Ltd., Guilford, Surrey, UK])
Background: Cellular ATP, detected with luciferase, serves as a proxy for viable cell number.

Counter-ions that a name gives are not always drawn.

Regarding `O=C(NS(=O)(=O)/C=C/c1ccc(Cl)cc1)c1ccc(Cl)cc1Cl` [Example 1-1, (E)-2-(4-Chloro-phenyl)-ethenesulfonic acid 2,4-dichloro-benzoylamide], the IC50 – broadly, the point on the concentration scale where inhibition reaches its midpoint – was 8.5 µM.

The molecule `O=C(NS(=O)(=O)/C=C/c1ccccc1)c1ccc(Cl)cc1Cl` [Example 1-2, (E)-2-Phenyl-ethenesulfonic acid 2,4-dichloro-benzoylamide] showed an IC50 of 3.1 µM.

The molecule `O=C(NS(=O)(=O)/C=C/c1ccc(C(F)(F)F)cc1)c1ccc(Cl)cc1Cl` [Example 1-3, (E)-2-(4-Trifluoromethyl-phenyl)-ethenesulfonic acid 2,4-dichloro-benzoylamide] showed an IC50 of 0.5 to 15 µM.

For the molecule `Cc1ccc(/C=C/S(=O)(=O)NC(=O)c2ccc(Cl)cc2Cl)c(C)c1` [Example 1-4, (E)-2-(2,4-Dimethyl-phenyl)-ethenesulfonic acid 2,4-dichloro-benzoylamide], the IC50 was 0.5 to 15 µM.

As to `COc1ccccc1/C=C/S(=O)(=O)NC(=O)c1ccc(Cl)cc1Cl` [Example 1-5, (E)-2-(2-Methoxy-phenyl)-ethenesulfonic acid 2,4-dichloro-benzoylamide], the IC50 fell in the range of 0.5 to 15 µM.

Take `O=C(NS(=O)(=O)/C=C/c1ccccc1Cl)c1ccc(Cl)cc1Cl` [Example 1-7, (E)-2-(2-Chlorophenyl)-ethenesulfonic acid 2,4-dichloro-benzoylamide]: the IC50 fell in the range of 0.5 to 15 µM.

Turning to `O=C(NS(=O)(=O)/C=C/c1ccc(F)cc1F)c1ccc(Cl)cc1Cl` [Example 1-8, (E)-2-(2,4-Difluoro-phenyl)-ethenesulfonic acid 2,4-dichloro-benzoylamide], the IC50 lay within 0.5 to 15 µM.

For `O=C(NS(=O)(=O)/C=C/c1ccc(OC(F)(F)F)cc1)c1ccc(Cl)cc1Cl` [Example 1-9, (E)-2-(4-Trifluoromethoxyphenyl)-ethenesulfonic acid 2,4-dichloro-benzoylamide], the IC50 is 0.5 to 15 µM.

Consider `CN(C)c1ccccc1/C=C/S(=O)(=O)NC(=O)c1ccc(Cl)cc1Cl` [Example 1-13, (E)-2-(2-Dimethylamino-phenyl)-ethenesulfonic acid 2,4-dichloro-benzoylamide], for which the IC50 fell in the range of 0.5 to 15 µM.

The molecule `COc1cccc(/C=C/S(=O)(=O)NC(=O)c2ccc(F)cc2Cl)c1` [Example 1-14, (E)-2-(3-Methoxy-phenyl)-ethenesulfonic acid 2-chloro-4-fluoro-benzoylamide; sodium salt] yielded an IC50 of 0.5 to 15 µM.

For `O=C(NS(=O)(=O)/C=C/c1ccc(F)cc1F)c1ccc(F)cc1Cl` [Example 1-17, (E)-2-(2,4-Difluoro-phenyl)-ethenesulfonic acid 2-chloro-4-fluoro-benzoylamide; sodium salt], the half-inhibitory concentration (IC50) lay within 0.5 to 15 µM.

`Cc1ccc(/C=C/S(=O)(=O)NC(=O)c2ccc(F)cc2C(F)(F)F)c(C)c1` [Example 1-20, (E)-2-(2,4-Dimethyl-phenyl)-ethenesulfonic acid 4-fluoro-2-trifluoromethyl-benzoylamide; sodium salt] came in with an IC50 of 0.5 to 15 µM.

In turn, `O=C(NS(=O)(=O)/C=C/c1ccccc1Cl)c1ccc(F)cc1C(F)(F)F` [Example 1-23, (E)-2-(2-Chlorophenyl)-ethenesulfonic acid 4-fluoro-2-trifluoromethyl-benzoylamide; sodium salt] yielded an IC50 of 0.5 to 15 µM.

For the molecule `Cc1ccc(/C=C/S(=O)(=O)NC(=O)c2ccc(C(F)(F)F)cc2C(F)(F)F)c(C)c1` [Example 1-26, (E)-2-(2,4-Dimethyl-phenyl)-ethenesulfonic acid 2,4-bis-trifluoromethyl-benzoylamide; sodium salt], the IC50 lay in the range of 0.5 to 15 µM.

For the molecule `COc1ccccc1/C=C/S(=O)(=O)NC(=O)c1ccc(C(F)(F)F)cc1C(F)(F)F` [Example 1-28, (E)-2-(2-Methoxy-phenyl)-ethenesulfonic acid 2,4-bis-trifluoromethyl-benzoylamide; sodium salt], the IC50 is 0.5 to 15 µM.

In turn, `O=C(NS(=O)(=O)/C=C/c1ccccc1Cl)c1ccc(C(F)(F)F)cc1C(F)(F)F` [Example 1-30, (E)-2-(2-Chlorophenyl)-ethenesulfonic acid 2,4-bis-trifluoromethyl-benzoylamide; sodium salt] displayed an IC50 of 0.5 to 15 µM.

`O=C(NS(=O)(=O)/C=C/c1ccccc1O)c1ccc(Cl)cc1Cl` [Example 1-33, (E)-2-(2-Hydroxy-phenyl)-ethenesulfonic acid 2,4-dichloro-benzoylamide] gave an IC50 of 0.5 to 15 µM.

Regarding `O=C(NS(=O)(=O)/C=C/c1cccc(O)c1)c1ccc(Cl)cc1Cl` [Example 1-35, (E)-2-(3-Hydroxy-phenyl)-ethenesulfonic acid 2,4-dichloro-benzoylamide], the IC50 lay within 0.5 to 15 µM.

On to `O=C(NS(=O)(=O)/C=C/c1c(F)cc(F)cc1F)c1ccc(Cl)cc1Cl` [Example 1-36, (E)-2-(2,4,6-Trifluoro-phenyl)-ethenesulfonic acid 2,4-dichloro-benzoylamide; sodium salt], for which the IC50 was 0.5 to 15 µM.

`O=C(NS(=O)(=O)/C=C/c1ccc(OC(F)(F)F)cc1)c1ccc(F)cc1Cl` [Example 1-39, (E)-2-(4-Trifluoromethoxyphenyl)-ethenesulfonic acid 2-chloro-4-fluoro-benzoylamide; sodium salt] had an IC50 of 0.5 to 15 µM.

As to `O=C(NS(=O)(=O)/C=C/c1ccc(C(F)(F)F)cc1)c1ccc(F)cc1C(F)(F)F` [Example 1-42, (E)-2-(4-Trifluoromethyl-phenyl)-ethenesulfonic acid 4-fluoro-2-trifluoromethyl-benzoylamide; sodium salt], the IC50 lay in the range of 0.5 to 15 µM.

As for `O=C(NS(=O)(=O)C=Cc1ccccc1)c1ccc(Cl)cc1F` [Example 1-43, 2-Phenyl-ethenesulfonic acid 4-chloro-2-fluoro-benzoylamide], the half-inhibitory concentration (IC50) fell in the range of 0.5 to 15 µM.

Regarding `O=C(NS(=O)(=O)/C=C/c1ccccc1)c1ccc(F)cc1C(F)(F)F` [Example 1-45, (E)-2-Phenyl-ethenesulfonic acid 4-fluoro-2-trifluoromethyl-benzoylamide; sodium salt], the IC50 fell in the range of 0.5 to 15 µM.

With `C/C(=C\c1ccccc1)S(=O)(=O)NC(=O)c1ccc(Cl)cc1Cl` [Example 2-1, (E)-1-Phenyl-propene-2-sulfonic acid 2,4-dichloro-benzoylamide], the IC50 is 0.5 to 15 µM.

In turn, `C/C(=C\S(=O)(=O)NC(=O)c1ccc(Cl)cc1Cl)c1ccccc1` [Example 3-1, (E)-2-Phenyl-propene-1-sulfonic acid 2,4-dichloro-benzoylamide] gave an IC50 of 9.2 µM.

In turn, `Cc1cc(Cl)ccc1C(=O)NS(=O)(=O)/C=C/c1ccccc1Cl` [Example 4-2, (E)-2-(2-Chlorophenyl)-ethenesulfonic acid 4-chloro-2-methyl-benzoylamide; sodium salt] registered an IC50 of 0.5 to 15 µM.

`COc1ccccc1/C=C/S(=O)(=O)NC(=O)c1ccc(Cl)cc1C` [Example 4-4, (E)-2-(2-Methoxy-phenyl)-ethenesulfonic acid 4-chloro-2-methyl-benzoylamide; sodium salt] registered an IC50 of 0.5 to 15 µM.

Take `COc1cccc(/C=C/S(=O)(=O)NC(=O)c2ccc(Cl)cc2OC)c1` [Example 4-5, (E)-2-(3-Methoxy-phenyl)-ethenesulfonic acid 4-chloro-2-methoxy-benzoylamide; sodium salt]: the IC50 was in the range of 0.5 to 15 µM.

`COc1ccccc1/C=C/S(=O)(=O)NC(=O)c1ccc(Br)cc1C` [Example 4-8, (E)-2-(2-Methoxy-phenyl)-ethenesulfonic acid 4-bromo-2-methyl-benzoylamide; sodium salt] yielded an IC50 of 0.5 to 15 µM.

`Cc1cc(Br)ccc1C(=O)NS(=O)(=O)C=Cc1ccccc1Cl` [Example 4-10, 2-(2-Chlorophenyl)-ethenesulfonic acid 4-bromo-2-methyl-benzoylamide; sodium salt] had an IC50 of 0.5 to 15 µM.

On to `COc1ccccc1/C=C/S(=O)(=O)NC(=O)c1ccc(C)cc1Br` [Example 4-13, (E)-2-(2-Methoxy-phenyl)-ethenesulfonic acid 2-bromo-4-methyl-benzoylamide; sodium salt], for which the IC50 lay in the range of 0.5 to 15 µM.

`Cc1ccc(C(=O)NS(=O)(=O)/C=C/c2ccc(Cl)c(Cl)c2)c(Br)c1` [Example 4-16, (E)-2-(3,4-Dichloro-phenyl)-ethenesulfonic acid 2-bromo-4-methyl-benzoylamide; sodium salt] displayed an IC50 of 0.5 to 15 µM.

Regarding `O=C(NS(=O)(=O)/C=C/c1ccc(C(F)(F)F)cc1)c1ccc(F)cc1Br` [Example 4-17, (E)-2-(4-Trifluoromethyl-phenyl)-ethenesulfonic acid 2-bromo-4-fluoro-benzoylamide; sodium salt], the IC50 lay in the range of 0.5 to 15 µM.

(Values after patent publication US7208526B2, “Styrylsulfonamides” (Hoffmann-La Roche Inc., priority 2005, dated 2007).)
